Laboratory results taken from patent US7897621B2, “2-trifluoromethylnicotinamide derivatives as HDL-cholesterol raising agents” (Hoffmann-La Roche Inc., priority 2008, dated 2011).
pEC50, pIC50: −log10 of the molar value.

Tests used:
THP-1 cells = test: Cholesterol efflux assay; format: cell-based; conditions: Homo sapiens; THP-1 cells differentiated to macrophages, [3H]cholesterol loaded, efflux induced by 10 μg/ml Apolipoprotein AI, 6 hrs; percent stimulation over DMSO
Protocol: The ability of compounds of the invention to stimulate cholesterol efflux is determined in replicate cultures of THP-1 cells in 96-well microplates. Cells are plated at an initial density of 150,000 cells/well and differentiated to macrophages with the addition of PMA (100 ng/ml) for 72 hrs in 10% fetal bovine serum, 3 μI/L of b-mercaptoethanol, RPMI-1640 medium. Cells are washed once with RPMI-1640 and loaded with RPMI-1640 medium containing 2% FCS, 50 μg/ml acetylated LDL, and 10 μCi/ml [^3H]cholesterol for 48 hours at 37° C. After loading the cells are washed once with RPMI-1640 and incubated with the compound of interest from DMSO solutions for an additional 24 hrs in RPMI-1640 medium containing 1 mg/ml fatty acid free-bovine serum albumin (BSA). Upon incubation cells are washed once, and cholesterol efflux is induced by the addition of 10 μg/ml Apolipoprotein Al in RPMI-1640 containing 1 mg/ml BSA and in the presence of the compound for an additional 6 hrs. Following incubation radioactivity is determined in the supernatants and cholesterol efflux is expressed as the percent stimulation over replicate cultures treated only with DMSO. Sigmoidal curves were fitted using the XLfit3 program (ID Business Solutions Ltd. UK) and EC50 values were determined.

cannabinoid CB1 receptor = cannabinoid CB1 receptor (Homo sapiens, UniProt P21554); test: CB1-receptor binding assay; conditions: determined as described in WO 2006/106054, page 36
Chain of cannabinoid CB1 receptor (P21554 whole entry): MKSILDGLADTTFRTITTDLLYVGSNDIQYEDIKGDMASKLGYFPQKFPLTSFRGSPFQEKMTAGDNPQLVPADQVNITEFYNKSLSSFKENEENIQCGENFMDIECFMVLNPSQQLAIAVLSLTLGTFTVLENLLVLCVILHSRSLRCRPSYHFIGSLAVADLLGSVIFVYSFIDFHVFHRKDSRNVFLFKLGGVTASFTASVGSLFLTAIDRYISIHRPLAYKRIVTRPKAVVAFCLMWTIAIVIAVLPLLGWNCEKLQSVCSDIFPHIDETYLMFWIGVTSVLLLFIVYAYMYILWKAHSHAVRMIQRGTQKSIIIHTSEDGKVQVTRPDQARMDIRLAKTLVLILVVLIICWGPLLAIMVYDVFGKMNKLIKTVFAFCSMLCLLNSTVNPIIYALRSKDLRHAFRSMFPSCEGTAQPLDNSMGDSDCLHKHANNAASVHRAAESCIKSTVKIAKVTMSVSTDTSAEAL
Protocol: The affinity of the compounds of formula I of the present invention towards cannabinoid CB1 receptors was determined as described in WO 2006/106054, page 36.

Row | SMILES | pEC50 (THP-1 cells) | pIC50 (cannabinoid CB1 receptor)
1 | CC(O)(CNC(=O)c1cc(-c2ccc(Cl)cc2)c(OCC(F)(F)F)nc1C(F)(F)F)C1CC1 (stereo not shown) [Example 1, 5-(4-chloro-phenyl)-N-(2-cyclopropyl-2-hydroxy-propyl)-6-(2,2,2-trifluoro-ethoxy)-2-trifluoromethyl-nicotinamide] | 6.35 | ~5.00
2 | CC(O)(CNC(=O)c1cc(-c2ccc(Cl)c(Cl)c2)c(OCC(F)(F)F)nc1C(F)(F)F)C1CC1 (stereo not shown) [Example 2, N-(2-cyclopropyl-2-hydroxy-propyl)-5-(3,4-dichloro-phenyl)-6-(2,2,2-trifluoro-ethoxy)-2-trifluoromethyl-nicotinamide] | 5.97 | < 5.00
3 | CC(O)(CNC(=O)c1cc(-c2cccc(Cl)c2)c(OCC(F)(F)F)nc1C(F)(F)F)C1CC1 (stereo not shown) [Example 3, 5-(3-chloro-phenyl)-N-(2-cyclopropyl-2-hydroxy-propyl)-6-(2,2,2-trifluoro-ethoxy)-2-trifluoromethyl-nicotinamide] | 6.32 | < 5.00
4 | O=C(N[C@@H]1CCCC[C@H]1O)c1cc(-c2ccc(Cl)cc2)c(OCC(F)(F)F)nc1C(F)(F)F [Example 4, 5-(4-chloro-phenyl)-N-((1R,2R)-2-hydroxy-cyclohexyl)-6-(2,2,2-trifluoro-ethoxy)-2-trifluoromethyl-nicotinamide] | 6.41 | 5.25
5 | CC(C)CC(CO)NC(=O)c1cc(-c2ccc(NS(C)(=O)=O)cc2)c(OCc2ccccn2)nc1C(F)(F)F (stereo not shown) [Example 5, N-(1-hydroxymethyl-3-methyl-butyl)-5-(4-methanesulfonylamino-phenyl)-6-(pyridin-2-ylmethoxy)-2-trifluoromethyl-nicotinamide] | 6.05 | ~5.00
6 | CS(=O)(=O)Nc1ccc(-c2cc(C(=O)N[C@@H]3CCCC[C@H]3O)c(C(F)(F)F)nc2OCC(F)(F)F)cc1 [Example 6, N-((1R,2R)-2-hydroxy-cyclohexyl)-5-(4-methanesulfonylamino-phenyl)-6-(2,2,2-trifluoro-ethoxy)-2-trifluoromethyl-nicotinamide] | 6.25 | < 5.00
7 | O=C(N[C@@H]1CCCC[C@H]1O)c1cc(-c2ccc(Cl)c(Cl)c2)c(OCc2ccccn2)nc1C(F)(F)F [Example 7, 5-(3,4-dichloro-phenyl)-N-((1R,2R)-2-hydroxy-cyclohexyl)-6-(pyridin-2-ylmethoxy)-2-trifluoromethyl-nicotinamide] | 6.19 | < 5.00

The remaining lines, values ahead:

Row | pEC50 (THP-1 cells) | pIC50 (cannabinoid CB1 receptor) | SMILES
8 | 5.79 | < 5.00 | C[C@](O)(CNC(=O)c1cc(-c2ccc(Cl)c(Cl)c2)c(OCC(F)(F)F)nc1C(F)(F)F)C1CC1 [Example 2A, N-((R)-2-cyclopropyl-2-hydroxy-propyl)-5-(3,4-dichloro-phenyl)-6-(2,2,2-trifluoro-ethoxy)-2-trifluoromethyl-nicotinamide]
9 | 5.85 | < 5.00 | C[C@@](O)(CNC(=O)c1cc(-c2ccc(Cl)c(Cl)c2)c(OCC(F)(F)F)nc1C(F)(F)F)C1CC1 [Example 2B, N-((S)-2-cyclopropyl-2-hydroxy-propyl)-5-(3,4-dichloro-phenyl)-6-(2,2,2-trifluoro-ethoxy)-2-trifluoromethyl-nicotinamide]
10 | 5.92 | < 5.00 | O=C(N[C@@H]1CCCC[C@@H]1O)c1cc(-c2ccc(Cl)cc2)c(OCC(F)(F)F)nc1C(F)(F)F [Example 4B, 5-(4-chloro-phenyl)-N-((1R,2S)-2-hydroxy-cyclohexyl)-6-(2,2,2-trifluoro-ethoxy)-2-trifluoromethyl-nicotinamide]
11 | 5.60 | < 5.00 | O=C(N[C@H]1CCCC[C@H]1O)c1cc(-c2ccc(Cl)cc2)c(OCC(F)(F)F)nc1C(F)(F)F [Example 4C, 5-(4-chloro-phenyl)-N-((1S,2R)-2-hydroxy-cyclohexyl)-6-(2,2,2-trifluoro-ethoxy)-2-trifluoromethyl-nicotinamide]
